This data set in a line: DSSTox (CPDBAS) Carcinogenic Potency Database Summary MultiCellCall Results. As to conditions: animal carcinogenicity bioassays, multi-cell call summary. An outline of the steps: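 Summary call drawn from chronic long-term cancer bioassays in rats, mice, hamsters, dogs and nonhuman primates, using the most positive result per sex-species. Score: multispecies=50, multisex=30, multisite=20, summed for combinations.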

Structures are written as SMILES. Active and inactive are the calls of the source.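 The calls were made as follows: active = tumour findings in long-term animal cancer tests in more than one sex, species or organ; inactive = no tumour finding and more than one negative test.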

As for `Cc1ccc(N=Nc2c(O)ccc3ccccc23)c([N+](=O)[O-])c1`, the outcome is “active; multisite active; multisex active; multispecies active”.

Take `CN(C)NC(=O)CCC(=O)O`: the outcome was “active; multisite active; multisex active; multispecies active”.

Regarding `CCN(Cc1cccc(S(=O)(=O)O)c1)c1ccc(C(=C2C=CC(=[N+](CC)Cc3cccc(S(=O)(=O)O)c3)C=C2)c2ccc(O)cc2S(=O)(=O)[O-])cc1`, the outcome is “inactive; multisex inactive; multispecies inactive”.

Take `c1ccc(NNc2ccccc2)cc1`: the outcome is “active; multisite active; multisex active; multispecies active”.

As for `COc1c(Cl)c(Cl)c(Cl)c(Cl)c1Cl`, the outcome is “active; multisite active; multispecies active”.

`O.[Cd+2].[Cl-].[Cl-]`: the outcome is “inactive; multisex inactive”.

Consider `ClC(Cl)Br`, for which the outcome was “active; multisite active; multisex active; multispecies active”.

Turning to `ClCOCCl`, the outcome is “active; multisite active; multisex active; multispecies active”.

Turning to `Cc1cccc(Nc2cc(Cl)nc(SCC(=O)O)n2)c1C`, the outcome was “active; multispecies active”.

For the compound `COc1ccc([N+](=O)[O-])cc1N=Nc1c(O)c(C(=O)Nc2cccc([N+](=O)[O-])c2)cc2ccccc12`, the outcome is “inactive; multisex inactive; multispecies inactive”.

Regarding `O=c1c(O)c(-c2ccc(O)cc2)oc2cc(O)cc(O)c12`, the outcome was “inactive; multisex inactive”.

Turning to `CC(C)[N+](=O)[O-]`, the outcome is “inactive; multisex inactive”.

With `NC(=S)Nc1cccc2ccccc12`, the outcome was “inactive; multisex inactive”.

As for `CC(N)Cc1ccccc1` (stereo unspecified), the outcome is “inactive; multisex inactive; multispecies inactive”.

Turning to `O=c1ccc2ccccc2o1`, the outcome is “active; multisite active; multisex active; multispecies active”.

As for `NNCCc1ccccc1`, the outcome was “active; multisite active”.

Regarding `CN(C)c1ccc(C(=C2C=CC(=[N+](C)C)C=C2)c2ccc(N(C)C)cc2)cc1`, the outcome was “active; multisite active; multisex active”.

Turning to `O=C(O)c1ccccc1`, the outcome is “inactive; multisex inactive; multispecies inactive”.

On to `C=CC(=C)C`, for which the outcome was “active; multisite active; multisex active; multispecies active”.

As for `Nc1ccc(Nc2ccccc2)cc1`, the outcome is “inactive; multisex inactive; multispecies inactive”.

Regarding `COC1=CC(=O)C[C@@H](C)[C@]12Oc1c(Cl)c(OC)cc(OC)c1C2=O`, the outcome was “active; multisite active; multisex active”.

On to `O=[N+]([O-])c1ccc2ncccc2c1`, for which the outcome was “inactive; multisex inactive”.

`FC(F)(F)C(Cl)Cl`: the outcome was “active; multisite active; multisex active”.

Consider `ClCCCl`, for which the outcome was “active; multisite active; multisex active; multispecies active”.

Turning to `Nc1ccc2nc3ccccn3c2n1`, the outcome was “active; multisite active; multisex active; multispecies active”.

For `Cc1c(N(C)C)c(=O)n(-c2ccccc2)n1C`, the outcome was “inactive; multisex inactive”.

With `Nc1ccc(N=Nc2ccc(N)cc2)cc1`, the outcome is “inactive; multisex inactive”.

As to `CN(N=O)c1ccc(/C=C/c2ccnc3ccccc23)cc1`, the outcome was “active; multisex active”.

For `Cc1ccc(N=C=O)cc1N=C=O`, the outcome is “active; multisite active; multisex active; multispecies active”.

`CCn1c2ccccc2c2cc(N)ccc21`: the outcome is “active; multisite active; multisex active; multispecies active”.

As to `COc1ccc(C(c2ccc(OC)cc2)C(Cl)(Cl)Cl)cc1`, the outcome was “inactive; multisex inactive; multispecies inactive”.

On to `NCCCCCCCCCCC(=O)O`, for which the outcome was “active; multisite active”.

In the case of `Cc1ccccc1`, the outcome was “active; multisite active; multisex active”.

`C=CCN(CC(C)O)N=O` (stereo unspecified): the outcome is “active; multisite active”.

`C=CCNN`: the outcome is “active; multisite active; multisex active”.

`CNCCC(Oc1ccc(C(F)(F)F)cc1)c1ccccc1` (stereo unspecified): the outcome was “inactive; multisex inactive; multispecies inactive”.

For `Cc1cccc(OCC(O)CNC(C)(C)C)c1C` (stereo unspecified), the outcome is “inactive; multisex inactive”.

Consider `O=C(C1CCCCC1)N1CC(=O)N2CCc3ccccc3C2C1` (stereo unspecified), for which the outcome is “inactive; multisex inactive; multispecies inactive”.

As to `CCCCC(C)(O)C/C=C/[C@H]1[C@H](O)CC(=O)[C@@H]1CCCCCCC(=O)OC` (stereo partly specified), the outcome is “inactive; multisex inactive; multispecies inactive”.

Take `CN(C)CCN(C)N=O`: the outcome was “active; multisite active; multisex active”.

On to `FCCl`, for which the outcome is “active; multisex active”.

Turning to `ClC1(Cl)C2(Cl)C3(Cl)C4(Cl)C(Cl)(Cl)C5(Cl)C3(Cl)C1(Cl)C5(Cl)C24Cl` (stereo unspecified), the outcome is “active; multisite active; multisex active; multispecies active”.

Consider `CCOP(=S)(OCC)Oc1ccc([N+](=O)[O-])cc1`, for which the outcome is “inactive; multisex inactive; multispecies inactive”.

As for `N[C@@H](Cc1c[nH]c2ccccc12)C(=O)O`, the outcome was “inactive; multisex inactive; multispecies inactive”.

`O=C1C2(Cl)C3(Cl)C4(Cl)C(Cl)(Cl)C5(Cl)C3(Cl)C1(Cl)C5(Cl)C24Cl` (stereo unspecified): the outcome was “active; multisex active; multispecies active”.

In the case of `Clc1cccc(-c2ccc(Cl)c(Cl)c2Cl)c1Cl`, the outcome was “active; multisite active; multisex active; multispecies active”.

In the case of `CCCOC(=O)C1c2cc3c(cc2CC(C)C1C(=O)OCCC)OCO3` (stereo unspecified), the outcome was “inactive; multisex inactive”.

For `Nc1ccc2c(n1)[nH]c1ccccc12`, the outcome is “active; multisite active; multisex active”.

For `c1ccc2c(c1)Nc1ccccc1S2`, the outcome was “inactive; multisex inactive”.

Take `O=S(=O)([O-])[O-].[Cd+2]`: the outcome is “active; multisex active”.

As to `COc1cc(N)ccc1N=Nc1ccccc1`, the outcome was “inactive; multisex inactive”.

Turning to `O=[N+]([O-])c1ccc(-c2nc(N(CCO)CCO)c3ccccc3n2)s1`, the outcome was “active; multisite active”.

With `Cn1cc(C(=O)O)c(=O)c2ccc(/C=C/c3ccc([N+](=O)[O-])o3)nc21`, the outcome was “active; multisite active”.

Take `CC1(C)[C@@H](OC2O[C@H](C(=O)O)[C@@H](O)[C@H](O)[C@H]2O[C@H]2O[C@H](C(=O)O)[C@@H](O)[C@H](O)[C@H]2O)CC[C@]2(C)[C@H]3C(=O)C=C4[C@@H]5C[C@@](C)(C(=O)O)CC[C@]5(C)CC[C@@]4(C)[C@]3(C)CC[C@@H]12` (stereo partly specified): the outcome was “inactive; multisex inactive”.

`O=c1cc[nH]c(=O)[nH]1`: the outcome was “active; multisex active; multispecies active”.

In the case of `O=c1[nH]cc(F)c(=O)[nH]1`, the outcome is “active; multisite active; multisex active”.

Turning to `CC1CC(C)(C)CC(OOC(C)(C)C)(OOC(C)(C)C)C1` (stereo unspecified), the outcome was “inactive; multisex inactive”.

In the case of `CCn1cc(C(=O)O)c(=O)c2ccc(C)nc21`, the outcome is “active; multisite active; multisex active”.

Regarding `O=C(c1ccccc1)C(O)c1ccccc1` (stereo unspecified), the outcome was “inactive; multisex inactive; multispecies inactive”.

On to `NNc1nc(-c2ccc([N+](=O)[O-])cc2)cs1`, for which the outcome is “active; multisite active; multispecies active”.

Take `O=S(=O)(O)NC1CCCCC1`: the outcome is “active; multisite active; multisex active”.

The values are drawn from PubChem BioAssay AID1205 (EPA DSSTox, 2008).
